Laboratory results: patent US9751851B2, “Molecules and compositions that inhibit gram negative bacteria and their uses” (THE TRUSTEES OF PRINCETON UNIVERSITY, priority 2013, dated 2017)
Read-outs that look alike come from different tables or passages of the source.

Columns and labels:
[1] = system: wild-type P. aeruginosa PA14; experiment: microbe, parasite or virus in culture; type: cell-based; details: for inhibition at 100 µM / Efficacy (%): reduction of pyocyanin vs WT P. aeruginosa PA14: 0% = WT level, 100% = background medium; for IC50: read-out: IC50 for inhibition of pyocyanin production; for inhibition of pyocyanin production (in words): wild-type P. aeruginosa PA14, end point assays at 100 μM
Method: Methods. The oxidized form of pyocyanin imparts a green color to P. aeruginosa cultures, making the production of pyocyanin convenient to monitor by UV/Vis absorbance. Overnight P. aeruginosa cultures were subcultured into 5 mL fresh medium at 1:1000 dilution. Synthetic compounds were assayed at 100 μM for end point assays and at concentrations ranging from 200 nM to 200 μM for titrations following 17 hr of aerobic growth with shaking at 37° C. Cells were separated from culture fluids via centrifugation at 13,000 rpm for 15 min. Culture fluids were passed through 0.22 μm syringe driven filters (Millipore). Cell-free culture fluids were analyzed for pyocyanin using wavelength scans on a Beckman Coulter DU-800 spectrophotometer from 200 nm to 800 nm 695 nm was chosen for graphical representation. Titration data were fit with a variable-slope sigmoidal dose-response curve using GraphPad Prism to determine the IC50 values.
The compounds of the first library were assayed in wild-type (WT) P. aeruginosa PA14. Pyocyanin was used as a read-out for quorum sensing activity based on its absorbance at 695 nm. The efficacy of the compounds at reducing pyocyanin levels was calculated with respect to WT levels of pyocyanin, where WT levels of pyocyanin would lead to a 0% efficacy, and an absorbance equal to the background medium would lead to a 100% efficacy. Agonists that increase pyocyanin production have negative efficacy values.

P. aeruginosa PA14 = experiment: Growth of P. aeruginosa monitored by absorbance at 600 nm; type: cell-based
[2] = Pseudomonas aeruginosa, PA14, 17 h, read-out: Efficacy (%), Table 3
[3] = Pseudomonas aeruginosa, PA14, 17 h, read-out: Efficacy (%), Table 4
[4] = Pseudomonas aeruginosa, PA14, 17 h
[5] = WT P. aeruginosa PA14, 17 hr growth, titration

Compound: O=C(COc1cccc(Br)c1)Nc1cc(C(F)(F)F)cc(C(F)(F)F)c1 [S60, 1-amino-3,5-bis(trifluoromethyl)-C6-3-bromophenoxyhybrid]
- inhibition at 100 µM [1, 2]: 44%
- Efficacy (%) ([1]; Table 3): 44 ± 8%

Compound: O=C(COc1cccc(Br)c1)Nc1ccncc1C(F)(F)F [S62, 4-amino-3-trifluoromethylpyridine-C6-3-bromophenoxyhybrid]
- inhibition at 100 µM [1, 2]: 15%
- Efficacy (%) ([1]; Table 3): 15 ± 7%

Compound: O=C(COc1ccccc1Br)Nc1ccnc(C(F)(F)F)c1 [S65, 4-amino-2-trifluoromethylpyridine-C6-2-bromophenoxyhybrid]
- inhibition at 100 µM [1, 3]: 94%
- Efficacy (%) ([1]; Table 4): 94 ± 4%

Compound: O=C(COc1cccc(I)c1)Nc1ccnc(C(F)(F)F)c1 [S66, 4-amino-2-trifluoromethylpyridine-C6-3-iodophenoxyhybrid]
- inhibition at 100 µM [1, 3]: 95%
- Efficacy (%) ([1]; Table 4): 95 ± 3%

Compound: O=C(COc1cccc(Cl)c1)Nc1ccnc(C(F)(F)F)c1 [S67, 4-amino-2-trifluoromethylpyridine-C6-3-chlorophenoxyhybrid]
- inhibition at 100 µM [1, 3]: 101%
- Efficacy (%) ([1]; Table 4): 101 ± 3%

Compound: O=C(COc1ccc(F)cc1)Nc1ccnc(C(F)(F)F)c1 [S68, 4-amino-2-trifluoromethylpyridine-C6-4-fluorophenoxyhybrid]
- inhibition at 100 µM [1, 3]: 54%
- Efficacy (%) ([1]; Table 4): 54 ± 4%

Compound: O=C(COc1ccccc1F)Nc1ccnc(C(F)(F)F)c1 [S69, 4-amino-2-trifluoromethylpyridine-C6-2-fluorophenoxyhybrid]
- inhibition at 100 µM [1, 3]: 78 ± 3%

Compound: O=C(COc1ccc(F)cc1F)Nc1ccnc(C(F)(F)F)c1 [S70, 4-amino-2-trifluoromethylpyridine-C6-2,4-bisfluorophenoxyhybrid]
- inhibition at 100 µM [1, 3]: 49 ± 3%

Compound: O=C(COc1c(F)cccc1F)Nc1ccnc(C(F)(F)F)c1 [S71, 4-amino-2-trifluoromethylpyridine-C6-2,6-bisfluorophenoxyhybrid]
- inhibition at 100 µM [1, 3]: 66 ± 4%

Compound: O=C(COc1c(F)c(F)c(F)c(F)c1F)Nc1ccnc(C(F)(F)F)c1 [S72, 4-amino-2-trifluoromethylpyridine-C6-perfluorophenoxyhybrid]
- inhibition at 100 µM [1, 3]: 21 ± 14%

Compound: O=C(COc1cccc([N+](=O)[O-])c1)Nc1ccnc(C(F)(F)F)c1 [S73, 4-amino-2-trifluoromethylpyridine-C6-3-nitrophenoxyhybrid]
- inhibition at 100 µM [1, 3]: 39 ± 36%

Compound: N#Cc1cccc(OCC(=O)Nc2ccnc(C(F)(F)F)c2)c1 [S74, 4-amino-2-trifluoromethylpyridine-C6-3-cyanophenoxyhybrid]
- inhibition at 100 µM [1, 3]: 0.48 ± 7%

Compound: O=C(COc1cccc(C(F)(F)F)c1)Nc1ccnc(C(F)(F)F)c1 [S75, 4-amino-2-trifluoromethylpyridine-C6-3-trifluoromethylphenoxyhybrid]
- inhibition at 100 µM [1, 3]: 59 ± 3%

Compound: Cc1cccc(OCC(=O)Nc2ccnc(C(F)(F)F)c2)c1 [S76, 4-amino-2-trifluoromethylpyridine-C6-3-methylphenoxyhybrid]
- inhibition at 100 µM [1, 3]: 81%
- Efficacy (%) ([1]; Table 4): 81 ± 4%

Compound: O=C(COc1cccc(O)c1)Nc1ccnc(C(F)(F)F)c1 [S77, 4-amino-2-trifluoromethylpyridine-C6-3-hydroxyphenoxyhybrid]
- inhibition at 100 µM [1, 3]: 70%
- Efficacy (%) ([1]; Table 4): 70 ± 7%

Compound: O=C(COc1ccccc1O)Nc1ccnc(C(F)(F)F)c1 [S78, 4-amino-2-trifluoromethylpyridine-C6-2-hydroxyphenoxyhybrid]
- inhibition at 100 µM [1, 3]: 95%
- Efficacy (%) ([1]; Table 4): 95 ± 4%

Compound: O=C(CSc1cccc(F)c1)Nc1ccnc(C(F)(F)F)c1 [S79, 4-amino-2-trifluoromethylpyridine-C6-3-fluoroarylsulfide hybrid]
- inhibition at 100 µM [1, 3]: 94%
- Efficacy (%) ([1]; Table 4): 94 ± 4%

Compound: O=C(CNc1cccc(F)c1)Nc1ccnc(C(F)(F)F)c1 [S80, 4-amino-2-trifluoromethylpyridine-C6-3-fluoroaniline hybrid]
- inhibition at 100 µM [1, 3]: 100%
- Efficacy (%) ([1]; Table 4): 100 ± 4%

Compound: O=C(CCCCC#Cc1cccc(F)c1)Nc1ccnc(C(F)(F)F)c1 [S82, 7-(3-fluorophenyl)-N-(2-(trifluoromethyl)pyridin-4-yl)hept-6-ynamide]
- inhibition at 100 µM [1, 3]: 97%
- Efficacy (%) ([1]; Table 4): 97 ± 4%

Compound: O=C(CCCCCCc1cccc(F)c1)Nc1ccnc(C(F)(F)F)c1 [S83, 7-(3-fluorophenyl)-N-(2-(trifluoromethyl)pyridin-4-yl)heptanamide]
- inhibition at 100 µM [1, 3]: 96%
- Efficacy (%) ([1]; Table 4): 96 ± 4%

Compound: CCCCCCCCCNC(=O)CC(=O)c1ccccc1 [V-06-018, reference compound]
- IC50 [1, 4]: 18 µM

Compound: CCCCCCCCCC(=O)CC(=O)Nc1ccncc1 [compound 14, 3OC12-4-aminopyridine]
- inhibition at 100 µM ([1]; Pseudomonas aeruginosa, PA14, 17 h, read-out: Efficacy (%), Table 1, negative = agonist): 63 ± 2%
- IC50 [1, 4]: 0.16 µM

Compound: CCCCCCCCCCCC(=O)Nc1ccnc(F)c1 [compound 15, C12-4-amino-2-fluoropyridine]
- inhibition at 100 µM ([1]; Pseudomonas aeruginosa, PA14, 17 h, read-out: Efficacy (%), Table 2, negative = agonist): 70%
- Efficacy (%) ([1]; Table 2, negative = agonist): 70 ± 2%

Compound: O=C(COc1cccc(F)c1)Nc1ccnc(C(F)(F)F)c1 [compound 17, 4-amino-2-trifluoromethylpyridine-C6-3-fluorophenoxyhybrid]
- inhibition at 100 µM [1, 3]: 103%
- Efficacy (%) ([1]; Table 4): 103 ± 3%
- inhibition of pyocyanin production (in words) [1]: highly effective at blocking pyocyanin production

Compound: O=C(CCCCCCCCCCN=C=S)CC(=O)NC1CCOC1=O (centres unmarked) [itc-13, reference compound]
- IC50 [1, 5]: 56 µM

Compound: O=C(CCCOc1cccc(Br)c1)N[C@H]1CCOC1=O [mBL]
- inhibition of pyocyanin production (in words) [1]: most effective inhibitor of pyocyanin production

Compound: O=C(CCCOc1cccc(Cl)c1)NC1CCSC1=O (centres unmarked) [mCTL]
- IC50 [1, 5]: 9 µM
- inhibition of pyocyanin production (in words) [1]: potent inhibition of pyocyanin
- effect on P. aeruginosa PA14 growth (P. aeruginosa PA14): not affecting P. aeruginosa PA14 growth

Compound: chlorothiolactone [CTL, reference compound]
- inhibition of pyocyanin production (in words) [1]: Neither CL nor CTL inhibited pyocyanin production
